Experimental data taken from patent US20230085307A1, “PYRIDAZINONE COMPOUND AND HERBICIDE” (NISSAN CHEMICAL CORPORATION, priority 2019, published 2023).

What was measured:
[1] = system: late watergrass; assay: Test Example 1: herbicidal activity, application before weed generation under submerged conditions (Table 16, symbol A); type: in vivo, late watergrass (Echinochloa oryzicola); details: 320 g/ha applied herbicide
In short: (§1)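 Alluvial soil was flooded to 4 cm depth, weed seeds were sown mixed and 2.5-leaf rice seedlings were transplanted. On sowing day, the compound's emulsion, diluted in water to a set dose, was applied to the water surface. Plants grew at 25–30 °C and were scored 0–5 after three weeks.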

[2] = system: green foxtail; assay: Test Example 4: herbicidal effect by soil treatment (Table 19, symbol G); type: in vivo, green foxtail (Setaria viridis); details: for herbicidal effect on G: green foxtail / G: green foxtail, herbicidal effect rating: amount of applied herbicide 320 g/ha
In short: (§2)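 Emulsion of test compound, water-diluted to predetermined amount, sprayed on soil after sowing (seed depth ~1.5 cm, sterilized diluvial soil). Greenhouse, 25–30° C. Effect graded at three weeks post-spray.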

[3] = system: oval-leafed pondweed; assay: Test Example 1: herbicidal activity, application before weed generation under submerged conditions (Table 16, symbol C); type: in vivo, oval-leafed pondweed (Monochoria vaginalis); details: 320 g/ha applied herbicide
In short: as §1

[4] = system: redroot pigweed; assay: Test Example 5: herbicidal effect by foliage application, plastic box (Table 20, symbol N); type: in vivo, redroot pigweed (Amaranthus retroflexus); details: foliage application, evaluated three weeks after application; for herbicidal effect on N: redroot pigweed / herbicidal effect on N: redroot pigweed (criteria 0-5): 320 g/ha
In short: (§3)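 Post-emergence foliar test in sterilized diluvial soil. Compound applied as water-diluted emulsion at a predetermined rate to 14-day-old plants; evaluation at three weeks.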

[5] = system: rice flat sedge; assay: Test Example 3: herbicidal effect by foliage application, Wagner pot (Table 18, symbol E); type: in vivo, rice flat sedge (Cyperus iria); details: for herbicidal effect on E (rice flat sedge), rating 0-5: 320 g/ha; for herbicidal effect on E: rice flat sedge: amount of applied herbicide 320 g/ha
In short: (§4)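 Plants were sown in alluvial soil held under 0.1–0.5 cm standing water and grown 14 days in a greenhouse at 25–30 °C. An emulsifiable formulation, water-diluted to the set dose, was then sprayed onto the foliage, and effects were scored three weeks later using previously defined criteria.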

[6] = system: green foxtail; assay: Test Example 5: herbicidal effect by foliage application, plastic box (Table 20, symbol G); type: in vivo, green foxtail (Setaria viridis); details: foliage application, evaluated three weeks after application; for herbicidal effect on G: green foxtail / herbicidal effect on G: green foxtail (criteria 0-5): 320 g/ha
In short: as §3

[7] = system: blackgrass; assay: Test Example 5: herbicidal effect by foliage application, plastic box (Table 20, symbol J); type: in vivo, blackgrass (Alopecurus myosuroides); details: foliage application, evaluated three weeks after application; for herbicidal effect on J: blackgrass / herbicidal effect on J: blackgrass (criteria 0-5): 320 g/ha
In short: as §3

[8] = system: barnyard grass; assay: Test Example 4: herbicidal effect by soil treatment (Table 19, symbol H); type: in vivo, barnyard grass (Echinochloa crus-galli); details: for herbicidal effect on H: barnyard grass / H: barnyard grass, herbicidal effect rating: amount of applied herbicide 320 g/ha
In short: as §2

[9] = system: barnyard grass; assay: Test Example 3: herbicidal effect by foliage application, Wagner pot (Table 18, symbol H); type: in vivo, barnyard grass (Echinochloa crus-galli); details: for herbicidal effect on H (barnyard grass), rating 0-5: 320 g/ha; for herbicidal effect on H: barnyard grass: amount of applied herbicide 320 g/ha
In short: as §4

[10] = system: Japanese bulrush; assay: Test Example 2: herbicidal activity, application during weed generation under submerged conditions (Table 17, symbol B); type: in vivo, Japanese bulrush (Schoenoplectus juncoides); details: AAH 320 g/ha; application during weed generation, submerged conditions
In short: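 In this pot test, flooded alluvial soil (water depth 4 cm) holds all three species sown as a mixture. Once seedlings have one to two leaves, the compound's emulsion, thinned with water to the intended dose, is poured on the water; grading follows after three weeks on the earlier criteria.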

[11] = system: redroot pigweed; assay: Test Example 4: herbicidal effect by soil treatment (Table 19, symbol N); type: in vivo, redroot pigweed (Amaranthus retroflexus); details: for herbicidal effect on N: redroot pigweed / N: redroot pigweed, herbicidal effect rating: amount of applied herbicide 320 g/ha
In short: as §2

[12] = system: Italian ryegrass; assay: Test Example 5: herbicidal effect by foliage application, plastic box (Table 20, symbol K); type: in vivo, Italian ryegrass (Lolium multiflorum); details: foliage application, evaluated three weeks after application; for herbicidal effect on K: Italian ryegrass / herbicidal effect on K: Italian ryegrass (criteria 0-5): 320 g/ha
In short: as §3

[13] = system: chickweed; assay: Test Example 5: herbicidal effect by foliage application, plastic box (Table 20, symbol P); type: in vivo, common chickweed (Stellaria media); details: foliage application, evaluated three weeks after application; for herbicidal effect on P: chickweed / herbicidal effect on P: chickweed (criteria 0-5): 320 g/ha
In short: as §3

[14] = system: chickweed; assay: Test Example 4: herbicidal effect by soil treatment (Table 19, symbol P); type: in vivo, common chickweed (Stellaria media); details: for herbicidal effect on P: chickweed / P: chickweed, herbicidal effect rating: amount of applied herbicide 320 g/ha
In short: as §2

[15] = system: southern crabgrass; assay: Test Example 5: herbicidal effect by foliage application, plastic box (Table 20, symbol F); type: in vivo, southern crabgrass (Digitaria ciliaris); details: foliage application, evaluated three weeks after application; for herbicidal effect on F: southern crabgrass / herbicidal effect on F: southern crabgrass (criteria 0-5): 320 g/ha
In short: as §3

[16] = system: velvetleaf; assay: Test Example 4: herbicidal effect by soil treatment (Table 19, symbol M); type: in vivo, velvetleaf (Abutilon theophrasti); details: for herbicidal effect on M: velvetleaf / M: velvetleaf, herbicidal effect rating: amount of applied herbicide 320 g/ha
In short: as §2

Structure (SMILES) | Herbicidal effect on A: late watergrass (grade 0-5) [1] | Herbicidal effect on C: oval-leafed pondweed (grade 0-5) [3] | herbicidal effect on N: redroot pigweed [4] | herbicidal effect on E (rice flat sedge), rating 0-5 [5] | herbicidal effect on G: green foxtail [6] | herbicidal effect on J: blackgrass [7] | herbicidal effect on H (barnyard grass), rating 0-5 [9] | herbicidal effect rating, B: Japanese bulrush [10] | herbicidal effect on K: Italian ryegrass [12] | herbicidal effect on P: chickweed [13] | herbicidal effect on F: southern crabgrass [15] | herbicidal effect on G: green foxtail [2] | herbicidal effect on N: redroot pigweed (criteria 0-5) [4] | herbicidal effect on E: rice flat sedge [5] | herbicidal effect on G: green foxtail (criteria 0-5) [6] | herbicidal effect on J: blackgrass (criteria 0-5) [7] | herbicidal effect on H: barnyard grass [8] | herbicidal effect on H: barnyard grass [9] | herbicidal effect on N: redroot pigweed [11] | herbicidal effect on K: Italian ryegrass (criteria 0-5) [12] | further results
CCCC(=O)Oc1c(C)nn(C)c(=O)c1-c1c(-c2ccc(C(C)=O)cc2)sc2ccc(F)cc12 [2-078] | 5 (Herbicidal rate of 90% or more (almost completely withered)) | 4 (Herbicidal rate of 70% or more and less than 90%) | 5 (Herbicidal rate of 90% or more (almost completely withered)) | 5 (Herbicidal rate of 90% or more (almost completely withered)) | 3 (Herbicidal rate of 40% or more and less than 70%) | 4 (Herbicidal rate of 70% or more and less than 90%) | 3 (Herbicidal rate of 40% or more and less than 70%) | 4 (Herbicidal rate of 70% or more and less than 90%) | 5 (Herbicidal rate of 90% or more (almost completely withered)) | 5 (Herbicidal rate of 90% or more (almost completely withered)) | 0 (Herbicidal rate of 5% or less (almost no effect)) |  |  |  |  |  |  |  |  |  | herbicidal effect rating, G: green foxtail ([2]; 320 g/ha): 0 (Herbicidal rate of 5% or less (almost no effect)); herbicidal effect rating, H: barnyard grass ([8]; 320 g/ha): 0 (Herbicidal rate of 5% or less (almost no effect)); herbicidal effect rating, N: redroot pigweed ([11]; 320 g/ha): 4 (Herbicidal rate of 70% or more and less than 90%); herbicidal effect rating, P: chickweed ([14]; 320 g/ha): 3 (Herbicidal rate of 40% or more and less than 70%); herbicidal effect rating, M: velvetleaf ([16]; 320 g/ha): 3 (Herbicidal rate of 40% or more and less than 70%)
CCCSc1ccc(-c2sc3ccc(F)cc3c2-c2c(OC(=O)CCC)c(C)nn(C)c2=O)cc1 [2-249] | 3 (Herbicidal rate of 40% or more and less than 70%) | 0 (Herbicidal rate of 5% or less (almost no effect)) |  |  |  |  |  | 0 (Herbicidal rate of 5% or less (almost no effect)) |  |  |  | 4 (Herbicidal rate of 70% or more and less than 90%) | 5 (Herbicidal rate of 90% or more (almost completely withered)) | 5 (Herbicidal rate of 90% or more (almost completely withered)) | 5 (Herbicidal rate of 90% or more (almost completely withered)) | 4 (Herbicidal rate of 70% or more and less than 90%) | 4 (Herbicidal rate of 70% or more and less than 90%) | 5 (Herbicidal rate of 90% or more (almost completely withered)) | 5 (Herbicidal rate of 90% or more (almost completely withered)) | 3 (Herbicidal rate of 40% or more and less than 70%) | herbicidal effect on P: chickweed (criteria 0-5) [13]: 5 (Herbicidal rate of 90% or more (almost completely withered)); herbicidal effect on P: chickweed [14]: 0 (Herbicidal rate of 5% or less (almost no effect)); herbicidal effect on F: southern crabgrass (criteria 0-5) [15]: 5 (Herbicidal rate of 90% or more (almost completely withered)); herbicidal effect on M: velvetleaf [16]: 1 (Herbicidal rate of 5% or more and less than 20%)
Cc1ccccc1C(=O)Oc1c(C)nn(C)c(=O)c1-c1c(-c2ccc(OC(F)F)cc2)sc2ccc(F)cc12 [2-285] | 5 (Herbicidal rate of 90% or more (almost completely withered)) | 0 (Herbicidal rate of 5% or less (almost no effect)) |  |  |  |  |  | 3 (Herbicidal rate of 40% or more and less than 70%) |  |  |  | 0 (Herbicidal rate of 5% or less (almost no effect)) |  | 5 (Herbicidal rate of 90% or more (almost completely withered)) |  |  | 0 (Herbicidal rate of 5% or less (almost no effect)) | 5 (Herbicidal rate of 90% or more (almost completely withered)) | 0 (Herbicidal rate of 5% or less (almost no effect)) |  | N: redroot pigweed, herbicidal effect (criteria 0-5) ([4]; AAH 320 g/ha): 5 (Herbicidal rate of 90% or more (almost completely withered)); G: green foxtail, herbicidal effect (criteria 0-5) ([6]; AAH 320 g/ha): 3 (Herbicidal rate of 40% or more and less than 70%); J: blackgrass, herbicidal effect (criteria 0-5) ([7]; AAH 320 g/ha): 4 (Herbicidal rate of 70% or more and less than 90%); K: Italian ryegrass, herbicidal effect (criteria 0-5) ([12]; AAH 320 g/ha): 4 (Herbicidal rate of 70% or more and less than 90%); P: chickweed, herbicidal effect (criteria 0-5) ([13]; AAH 320 g/ha): 5 (Herbicidal rate of 90% or more (almost completely withered)); herbicidal effect on P: chickweed [14]: 3 (Herbicidal rate of 40% or more and less than 70%); F: southern crabgrass, herbicidal effect (criteria 0-5) ([15]; AAH 320 g/ha): 1 (Herbicidal rate of 5% or more and less than 20%); herbicidal effect on M: velvetleaf [16]: 0 (Herbicidal rate of 5% or less (almost no effect))
CCCC(=O)Oc1c(C)nn(C)c(=O)c1-c1c(-c2ccc(OC3CC3)cc2)sc2ccc(F)cc12 [2-218] | 5 (Herbicidal rate of 90% or more (almost completely withered)) | 5 (Herbicidal rate of 90% or more (almost completely withered)) |  |  |  |  |  | 3 (Herbicidal rate of 40% or more and less than 70%) |  |  |  |  | 2 (Herbicidal rate of 20% or more and less than 40%) | 5 (Herbicidal rate of 90% or more (almost completely withered)) | 2 (Herbicidal rate of 20% or more and less than 40%) | 1 (Herbicidal rate of 5% or more and less than 20%) |  | 5 (Herbicidal rate of 90% or more (almost completely withered)) |  | 4 (Herbicidal rate of 70% or more and less than 90%) | G: green foxtail, herbicidal effect rating [2]: 0 (Herbicidal rate of 5% or less (almost no effect)); H: barnyard grass, herbicidal effect rating [8]: 0 (Herbicidal rate of 5% or less (almost no effect)); N: redroot pigweed, herbicidal effect rating [11]: 1 (Herbicidal rate of 5% or more and less than 20%); herbicidal effect on P: chickweed (criteria 0-5) [13]: 5 (Herbicidal rate of 90% or more (almost completely withered)); P: chickweed, herbicidal effect rating [14]: 1 (Herbicidal rate of 5% or more and less than 20%); herbicidal effect on F: southern crabgrass (criteria 0-5) [15]: 0 (Herbicidal rate of 5% or less (almost no effect)); M: velvetleaf, herbicidal effect rating [16]: 0 (Herbicidal rate of 5% or less (almost no effect))
COc1ccccc1-c1sc2ccc(Cl)cc2c1-c1c(O)c(C)nn(C)c1=O [2-101] | 0 (Herbicidal rate of 5% or less (almost no effect)) | 3 (Herbicidal rate of 40% or more and less than 70%) | 5 (Herbicidal rate of 90% or more (almost completely withered)) | 5 (Herbicidal rate of 90% or more (almost completely withered)) | 3 (Herbicidal rate of 40% or more and less than 70%) | 5 (Herbicidal rate of 90% or more (almost completely withered)) | 4 (Herbicidal rate of 70% or more and less than 90%) | 3 (Herbicidal rate of 40% or more and less than 70%) | 4 (Herbicidal rate of 70% or more and less than 90%) | 5 (Herbicidal rate of 90% or more (almost completely withered)) | 2 (Herbicidal rate of 20% or more and less than 40%) |  |  |  |  |  |  |  |  |  | G: green foxtail, herbicidal effect rating [2]: 2 (Herbicidal rate of 20% or more and less than 40%); H: barnyard grass, herbicidal effect rating [8]: 3 (Herbicidal rate of 40% or more and less than 70%); N: redroot pigweed, herbicidal effect rating [11]: 5 (Herbicidal rate of 90% or more (almost completely withered)); P: chickweed, herbicidal effect rating [14]: 5 (Herbicidal rate of 90% or more (almost completely withered)); M: velvetleaf, herbicidal effect rating [16]: 3 (Herbicidal rate of 40% or more and less than 70%)
